From patent US20020137929A1, “1 - (3-heterocyclylphenyl) isothiourea, -isourea, -guanidine and -amidine herbicidal agents” (Intellectual Property Department, BASF Aktiengesellschaft, priority 1998, published 2002)

Legend:
[1] = system: IPOHE (Morningglory, Ivyleaf); test: Preemergence herbicidal evaluation; format: in vivo, Ipomoea hederacea; settings: rated 4-5 weeks after treatment, rating scale 0-9
Summary of the method: (§1)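 Visual 0-9 rating vs control (stand, vigor, malformation, size, chlorosis, overall appearance), scored 4-5 wk after spraying. Seeded soil cups were treated preemergence with compound in aqueous acetone, ~0.0156-0.500 kg/ha equivalent.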

[2] = system: IPOHE (Morningglory, Ivyleaf); test: Postemergence herbicidal evaluation; format: in vivo, Ipomoea hederacea; settings: postemergence
Summary of the method: (§2)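 Seedlings grown about two weeks were sprayed at 40 psi with compound dispersed in 50/50 acetone/water plus 0.5% TWEEN 20, at about 0.0156 to 0.500 kg/ha. Plants were kept in the greenhouse and scored 4–5 weeks later on a 0–9 visual scale against untreated controls.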

ABUTH (Velvetleaf) [3] = test: Preemergence herbicidal evaluation; format: in vivo, Abutilon theophrasti; settings: rated 4-5 weeks after treatment, rating scale 0-9
Summary of the method: as §1

AMBEL (Ragweed, Common) = test: Preemergence herbicidal evaluation; format: in vivo, Ambrosia artemisifolia; settings: rated 4-5 weeks after treatment, rating scale 0-9
Summary of the method: as §1

ABUTH (Velvetleaf) [4] = test: Postemergence herbicidal evaluation; format: in vivo, Abutilon theophrasti; settings: postemergence
Summary of the method: as §2

ZEAMX (Corn, Field) = test: Postemergence herbicidal evaluation; format: in vivo, Zea mays; settings: postemergence
Summary of the method: as §2

CASOB (Sicklepod) = test: Preemergence herbicidal evaluation; format: in vivo, Cassia obtusifolia; settings: rated 4-5 weeks after treatment, rating scale 0-9
Summary of the method: as §1

[5] = system: GLXMAW (Soybean, Williams); test: Postemergence herbicidal evaluation; format: in vivo, Glycine max, (L.) Merr. cv Williams; settings: postemergence
Summary of the method: as §2

CYPSE (Flatsedge) = test: Preemergence weed control under flooded paddy conditions; format: in vivo, Cyperus serotinus; settings: rated 3-4 weeks after treatment
Summary of the method: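 Seeds or propagules sown in silt loam kept flooded 1.5-3 cm; compounds in 50/50 acetone/water pipetted into flood water at about 0.0313 to 0.500 kg/ha. Greenhouse; visual 0-9 rating versus untreated control 3-4 weeks after treatment.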

ECHCG (Barnyardgrass) = test: Preemergence herbicidal evaluation; format: in vivo, Echinochloa crus-galli; settings: rated 4-5 weeks after treatment, rating scale 0-9
Summary of the method: as §1

[6] = system: ECHORC (Watergrass (Calif.)); test: Preemergence weed control under flooded paddy conditions; format: in vivo, Echinochloa oryzoides; settings: rated 3-4 weeks after treatment
Summary of the method: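 Ratings on a 0-9 visual scale cover stand, vigor, malformation, size, chlorosis and overall appearance relative to a control, taken three to four weeks post-treatment. Application was into flood water over freshly sown silt loam at roughly 0.0313 to 0.500 kg/ha.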

SETVI (Foxtail, Green) = test: Postemergence herbicidal evaluation; format: in vivo, Setaria viridis; settings: postemergence
Summary of the method: as §2

SMILES: Cn1c(C(F)(F)F)cc(=O)n(-c2cc(N=C3SCC(=O)N3Cc3ccc(F)cc3)c(Cl)cc2F)c1=O [Compound 151, 3-{4-Chloro-2-fluoro-5-{[3-(p-fluorobenzyl)-4-oxo-2-thiazolidinylidene]amino}phenyl}-1-methyl-6-(trifluoromethyl)-2,4(1H,3H)-pyrimidinedione]
- Preemergence herbicidal rating IPOHE ([1]; rate 0.0156 kg/ha): 4.0
- Preemergence herbicidal rating IPOHE ([1]; rate 0.0313 kg/ha): 9.0
- Preemergence herbicidal rating IPOHE ([1]; rate 0.0625 kg/ha): 9.0
- Preemergence herbicidal rating IPOHE ([1]; rate 0.1250 kg/ha): 9.0
- Preemergence herbicidal rating IPOHE ([1]; rate 0.2500 kg/ha): 9.0
- Herbicidal rating IPOHE ([2]; rate 0.0156 kg/ha): 9.0
- Herbicidal rating IPOHE ([2]; rate 0.0313 kg/ha): 9.0
- Herbicidal rating IPOHE ([2]; rate 0.0625 kg/ha): 9.0
- Preemergence herbicidal rating ABUTH (ABUTH (Velvetleaf) [3]; rate 0.0156 kg/ha): 9.0
- Preemergence herbicidal rating ABUTH (ABUTH (Velvetleaf) [3]; rate 0.0313 kg/ha): 9.0
- Preemergence herbicidal rating ABUTH (ABUTH (Velvetleaf) [3]; rate 0.0625 kg/ha): 9.0
- Preemergence herbicidal rating ABUTH (ABUTH (Velvetleaf) [3]; rate 0.1250 kg/ha): 9.0
- Preemergence herbicidal rating ABUTH (ABUTH (Velvetleaf) [3]; rate 0.2500 kg/ha): 9.0
- Preemergence herbicidal rating AMBEL (AMBEL (Ragweed, Common); rate 0.0156 kg/ha): 1.0
- Preemergence herbicidal rating AMBEL (AMBEL (Ragweed, Common); rate 0.0313 kg/ha): 7.0
- Preemergence herbicidal rating AMBEL (AMBEL (Ragweed, Common); rate 0.0625 kg/ha): 9.0
- Preemergence herbicidal rating AMBEL (AMBEL (Ragweed, Common); rate 0.1250 kg/ha): 9.0
- Preemergence herbicidal rating AMBEL (AMBEL (Ragweed, Common); rate 0.2500 kg/ha): 9.0
- Herbicidal rating ABUTH (ABUTH (Velvetleaf) [4]; rate 0.0156 kg/ha): 9.0
- Herbicidal rating ABUTH (ABUTH (Velvetleaf) [4]; rate 0.0313 kg/ha): 9.0
- Herbicidal rating ABUTH (ABUTH (Velvetleaf) [4]; rate 0.0625 kg/ha): 9.0
- Herbicidal rating ZEAMX (ZEAMX (Corn, Field); rate 0.0156 kg/ha): 4.0
- Herbicidal rating ZEAMX (ZEAMX (Corn, Field); rate 0.0313 kg/ha): 4.5
- Herbicidal rating ZEAMX (ZEAMX (Corn, Field); rate 0.0625 kg/ha): 5.0
- Preemergence herbicidal rating CASOB (CASOB (Sicklepod); rate 0.0156 kg/ha): 0.0
- Preemergence herbicidal rating CASOB (CASOB (Sicklepod); rate 0.0313 kg/ha): 2.0
- Preemergence herbicidal rating CASOB (CASOB (Sicklepod); rate 0.0625 kg/ha): 2.0
- Preemergence herbicidal rating CASOB (CASOB (Sicklepod); rate 0.1250 kg/ha): 9.0
- Preemergence herbicidal rating CASOB (CASOB (Sicklepod); rate 0.2500 kg/ha): 9.0
- Herbicidal rating GLXMAW ([5]; rate 0.0156 kg/ha): 4.0
- Herbicidal rating GLXMAW ([5]; rate 0.0313 kg/ha): 4.5
- Herbicidal rating GLXMAW ([5]; rate 0.0625 kg/ha): 5.5
- herbicidal effect rating, CYPSE (CYPSE (Flatsedge); 0.0625 kg/ha): 7.0
- herbicidal effect rating, CYPSE (CYPSE (Flatsedge); 0.2500 kg/ha): 7.0
- Preemergence herbicidal rating ECHCG (ECHCG (Barnyardgrass); rate 0.0156 kg/ha): 2.0
- Preemergence herbicidal rating ECHCG (ECHCG (Barnyardgrass); rate 0.0313 kg/ha): 9.0
- Preemergence herbicidal rating ECHCG (ECHCG (Barnyardgrass); rate 0.0625 kg/ha): 7.0
- Preemergence herbicidal rating ECHCG (ECHCG (Barnyardgrass); rate 0.1250 kg/ha): 9.0
- Preemergence herbicidal rating ECHCG (ECHCG (Barnyardgrass); rate 0.2500 kg/ha): 9.0
- herbicidal effect rating, ECHORC ([6]; 0.0313 kg/ha): 3.0
- herbicidal effect rating, ECHORC ([6]; 0.0625 kg/ha): 5.0
- herbicidal effect rating, ECHORC ([6]; 0.1250 kg/ha): 9.0
- herbicidal effect rating, ECHORC ([6]; 0.2500 kg/ha): 9.0
- Herbicidal rating SETVI (SETVI (Foxtail, Green); rate 0.0156 kg/ha): 5.0
- Herbicidal rating SETVI (SETVI (Foxtail, Green); rate 0.0313 kg/ha): 5.0
- Herbicidal rating SETVI (SETVI (Foxtail, Green); rate 0.0625 kg/ha): 9.0

SMILES: CCOC(=O)CN1C(=O)C(Br)SC1=Nc1cc(-n2c(=O)cc(C(F)(F)F)n(C)c2=O)c(F)cc1Cl (centres unmarked) [Compound 153, Ethyl 5-bromo-2-[{2-chloro-5-[3,6-dihydro-3-methyl-2,6-dioxo-4-(trifluoromethyl)-1(2H)-pyrimidinyl]-4-fluorophenyl}imino}-4-oxo-3-thiazolidineacetate]
- Preemergence herbicidal rating IPOHE ([1]; rate 0.1250 kg/ha): 1.0
- Preemergence herbicidal rating IPOHE ([1]; rate 0.2500 kg/ha): 0.0
- Herbicidal rating IPOHE ([2]; rate 0.0156 kg/ha): 4.0
- Herbicidal rating IPOHE ([2]; rate 0.0313 kg/ha): 6.0
- Herbicidal rating IPOHE ([2]; rate 0.0625 kg/ha): 9.0
- Preemergence herbicidal rating ABUTH (ABUTH (Velvetleaf) [3]; rate 0.1250 kg/ha): 0.0
- Preemergence herbicidal rating ABUTH (ABUTH (Velvetleaf) [3]; rate 0.2500 kg/ha): 2.0
- Preemergence herbicidal rating AMBEL (AMBEL (Ragweed, Common); rate 0.1250 kg/ha): 0.0
- Preemergence herbicidal rating AMBEL (AMBEL (Ragweed, Common); rate 0.2500 kg/ha): 1.0
- Herbicidal rating ABUTH (ABUTH (Velvetleaf) [4]; rate 0.0156 kg/ha): 1.0
- Herbicidal rating ABUTH (ABUTH (Velvetleaf) [4]; rate 0.0313 kg/ha): 1.0
- Herbicidal rating ABUTH (ABUTH (Velvetleaf) [4]; rate 0.0625 kg/ha): 5.0
- Herbicidal rating ZEAMX (ZEAMX (Corn, Field); rate 0.0156 kg/ha): 3.0
- Herbicidal rating ZEAMX (ZEAMX (Corn, Field); rate 0.0313 kg/ha): 3.5
- Herbicidal rating ZEAMX (ZEAMX (Corn, Field); rate 0.0625 kg/ha): 4.5
- Preemergence herbicidal rating CASOB (CASOB (Sicklepod); rate 0.1250 kg/ha): 0.0
- Preemergence herbicidal rating CASOB (CASOB (Sicklepod); rate 0.2500 kg/ha): 0.0
- Herbicidal rating GLXMAW ([5]; rate 0.0156 kg/ha): 3.5
- Herbicidal rating GLXMAW ([5]; rate 0.0313 kg/ha): 4.0
- Herbicidal rating GLXMAW ([5]; rate 0.0625 kg/ha): 4.0
- herbicidal effect rating, CYPSE (CYPSE (Flatsedge); 0.0625 kg/ha): 0.0
- herbicidal effect rating, CYPSE (CYPSE (Flatsedge); 0.1250 kg/ha): 0.0
- herbicidal effect rating, CYPSE (CYPSE (Flatsedge); 0.2500 kg/ha): 0.0
- Preemergence herbicidal rating ECHCG (ECHCG (Barnyardgrass); rate 0.1250 kg/ha): 0.0
- Preemergence herbicidal rating ECHCG (ECHCG (Barnyardgrass); rate 0.2500 kg/ha): 0.0
- herbicidal effect rating, ECHORC ([6]; 0.0625 kg/ha): 0.0
- herbicidal effect rating, ECHORC ([6]; 0.1250 kg/ha): 0.0
- herbicidal effect rating, ECHORC ([6]; 0.2500 kg/ha): 0.0
- Herbicidal rating SETVI (SETVI (Foxtail, Green); rate 0.0156 kg/ha): 0.0
- Herbicidal rating SETVI (SETVI (Foxtail, Green); rate 0.0313 kg/ha): 0.0
- Herbicidal rating SETVI (SETVI (Foxtail, Green); rate 0.0625 kg/ha): 0.0
